Measured values taken from ChEMBL document CHEMBL6078624, “Structure-based discovery of a 4,5-Dihydropyrazole-cored PET ligand for imaging of receptor-interacting serine/threonine-protein kinase 1 (RIPK1) in the brain” (Eur J Med Chem, 2024).
pEC50, pIC50: −log10 of the molar value.

Assays:
[1] = Inhibition of TSZ-induced necroptosis in human HT-29 cells by CellTiter-Glo luminescent cell viability assay
HT-29 = test: Anti-necroptotic activity against TNF induced human HT-29 cells assessed as cell viability incubated for 48 hrs by Cell Titer-Glo luminescent cell viability assay; format: functional, cell-based; details: HT-29, 48 h
L929 = test: Anti-necroptotic activity against TNF induced mouse L929 cells assessed as cell viability incubated for 24 hrs by Cell Titer-Glo luminescent cell viability assay; format: functional, cell-based; details: L929, 24 h

Row | SMILES | pEC50 [1] | pIC50 (HT-29) | pIC50 (L929)
1 | Cc1ccc(C2CC=NN2C(=O)C2CCN(C(=O)c3cccc(F)n3)CC2)cc1F (stereo not given) | 7.70 | – | –
2 | O=C(c1cccc(F)n1)N1CCC(C(=O)N2N=CCC2c2ccccc2)CC1 (stereo not given) | 6.62 | – | –
3 | Cc1ncc(-c2ccc3nc(N[11C](C)=O)sc3c2)cc1NC(=O)CC1CCCCC1 | – | 7.64 | 7.89
4 | O=C(c1ccccn1)N1CCC(C(=O)N2N=CCC2c2cc(F)cc(F)c2)CC1 (stereo not given) | 7.32 | – | –
